Source: US7935335B2, “Strains belonging to the genus Paenibacillus and method of controlling plant disease by using these strains or culture thereof” (Kaken Pharmaceutical Co., Ltd., priority 2004, dated 2011)

How the values were obtained:
[1] = system: cucumber anthracnose fungus (Colletotrichum orbiculare); assay: Test Example 1: control effect of a culture of each strain on cucumber anthracnose; format: in vivo; conditions: cucumber first true leaf; 20 ppm
Protocol: Each of plastic pots was filled with horticultural compost and sown with cucumber (cultivar: Suyo), followed by growing in a greenhouse for 20 days. The cotyledon of the cucumber young seedling having a developed first true leaf was coated with 0.1 mL of whole culture of each of strains BS-0048, BS-0074, BS-0105 and BS-0277 prepared by the method described in Production Example 1. After the pots were allowed to stand in a glass house at 25° C. for 3 days, the plants were inoculated with a suspension of cucumber anthracnose fungus conidia in distilled water (Colletotrichum orbiculare, 1×10^6 spores/ml) by spraying. The pots were allowed to stand in a dark moist chamber at 25° C. for 24 hours and then in a glass house at 25° C. for 7 days to cause the disease. Lesions in the first true leaf of each seedling were counted and the protective value was calculated from the number of the lesions by the following equation to make a comparison with respect to control effect. Protective value={1−(number of lesions on treated plot/number of lesions on untreated plot)}×100

[2] = system: cucumber anthracnose fungus (Colletotrichum orbiculare); assay: Test Example 2: control effect of purified spores on cucumber anthracnose; format: in vivo; conditions: 20 ppm
Source text: Each of plastic pots was filled with horticultural compost and sown with cucumber (cultivar: 15 Suyo), followed by growing in a greenhouse for 20 days. The cucumber young seedling having a developed second true leaf was subjected to foliage application treatment with a spore preparation sample of strain BS-0105 obtained by formulating the bacterium of the present invention produced by the method described in each of Production Examples 4, 5, 6 and 7, by the method described in Formulation Example 1, so that the proportion of cells might be 2×10^7 CFU/mL. After the pots were allowed to stand in a dark moist chamber at 25° C. for 24 hours and then in a glass house at 25° C. for 4 days, the plants were inoculated with a suspension of cucumber anthracnose fungus conidia in distilled water (Colletotrichum orbiculare, 1×10^6 spores/ml) by spraying. The pots were allowed to stand in a dark moist chamber at 25° C. for 24 hours and then in a glass house at 25° C. for 7 days to cause the disease. Lesions in each leaf were counted and the protective value was calculated from the number of the lesions by the following equation to make a comparison with respect to control effect. Protective value={1−(number of lesions on treated plot/number of lesions on untreated plot)}×100

[3] = system: cucumber bacterial blight bacterium (Pseudomonas syringae pv. lachrymans); assay: Test Example 3: control effect of purified spores on cucumber bacterial blight; format: in vivo; conditions: cucumber second true leaf; 20 ppm
[4] = system: strawberry anthracnose fungus (Glomerella cigulata); assay: Test Example 4: control effect of purified spores on strawberry anthracnose; format: in vivo; conditions: 20 ppm
Protocol: Strawberry seedlings (cultivar: Akihime) cultivated in plastic pots and having about 10 developed leaflets were subjected to foliage application treatment with a spore preparation sample of strain BS-0105 obtained by formulating the bacterium of the present invention produced by the method described in Production Example 5, by the method described in Formulation Example 2, so that the proportion of cells might be 2×10^7 CFU/mL. After the pots were allowed to stand in a dark moist chamber at 25° C. for 24 hours and then in a glass house at 25° C. for 3 days (or 1 day in the case of Amister 20 flowable), the plants were inoculated with a suspension of strawberry anthracnose fungus conidia in distilled water (Glomerella cigulata, 2×10^6 spores/ml) by spraying. The pots were allowed to stand in a dark moist chamber at 25° C. for 24 hours and then in a glass house at 25° C. for 14 days to cause the disease. The disease severity was calculated by the following equation and the protective value was calculated from the disease severity values by the following equation to make a comparison with respect to control effect. […]

[5] = system: cucumber bacterial blight bacterium (Pseudomonas syringae pv. lachrymans); assay: Evaluation Example 3: control effect on cucumber bacterial blight, plant foot drench; format: in vivo; conditions: 20 ppm
Protocol: Each of plastic pots was filled with horticultural compost and sown with cucumber (cultivar: Suyo), followed by growing in a greenhouse for 20 days. The cucumber young seedling having a developed second true leaf was subjected to plant foot drench treatment with the formulation obtained in the above-mentioned preparation example, in a proportion of 5 mL per seedling. After the pots were allowed to stand in a glass house at 25° C. for 3 days, the plants were inoculated with a suspension (1×10^8 CFU/mL) of cucumber bacterial blight bacterium (Pseudomonas syringae pv. lachrymans) in distilled water by spraying. The pots were allowed to stand in a dark moist chamber at 25° C. for 24 hours and then in a glass house at 25° C. for 7 days to cause the disease. Lesions in each leaf were counted and the protective value was calculated from the number of the lesions by the following equation to make a comparison with respect to control effect. Protective value={1−(number of lesions on treated plot/number of lesions on untreated plot)}×100

[6] = system: Fusarium wilt of cucumber fungus (Fusarium oxysporum f. sp. cucumerium); assay: Evaluation Example 5: control effect on Fusarium wilt of cucumber; format: in vivo; conditions: 20 ppm, Spray
Protocol: Each of plastic vats was filled with horticultural compost and sown with cucumber (cultivar: Sagamihanjiro), followed by growing in a greenhouse for 12 days. The cucumber young seedling having a developed cotyledon was subjected to foliar spray treatment with the formulation obtained in the above-mentioned preparation example, in a proportion of 1 mL per seedling. After the vats were allowed to stand in a glass house at 25° C. for 3 days, the plant foot of each plant was inoculated with 2 mL of a suspension (3×10^7 spores/mL) of conidia of Fusarium wilt of cucumber fungus (Fusarium oxysporum f. sp. cucumerium) in distilled water by drench. The vats were allowed to stand in a glass house at 25° C. for 14 days to cause the disease. The disease severity was calculated from the degree of infection and then the protective value was calculated from the disease severity values by the following equation to make a comparison with respect to control effect. […]

[7] = system: parsley cultured cells; assay: Activity of inducing disease resistance: elicitor responsiveness of parsley cultured cells, phytoalexin detection by fluorescence; format: cell-based; conditions: Evaluation Example 1; elicitor treatment Yes; 2.5 μM

CSC(=O)c1cccc2nnsc12 [Acibenzolar-S-methyl, S-methyl 1,2,3-benzothiazole-7-carboxylate]
Number of lesions [1]: 5
Protective value [1]: 96.7
First true leaf Number of lesions per leaf [2]: 0
First true leaf Protective value [2]: 100
Second true leaf Number of lesions per leaf [2]: 5.5
Second true leaf Protective value [2]: 99
Number of lesions per leaf [3]: 0 b
Protective value [3]: 100
Disease severity [4]: 10.9 b
Protective value [4]: 85.1
Number of lesions per leaf [5]: 137.8 b
Protective value [5]: 78.8
Disease severity [6]: 9.4
Protective value [6]: 75.6
Relative fluorescence [7]: 754.3
